Calls of active or inactive are those of the source.
Columns and labels:
Phospholipase D2 = Phospholipase D2 (Homo sapiens, UniProt O14939); test: PLD2 inhibitor potency in cells, dose response (AID 602147); type: functional;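 further: cellular assay in HEK293 cells overexpressing GFP-tagged PLD2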
Phospholipase D1 = Phospholipase D1 (Homo sapiens, UniProt Q13393); test: PLD1 inhibitor potency in cells, dose response (AID 602151); type: functional;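 further: cellular PLD1 assay in Calu-1 cells stimulated with PMA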
[1] = target: Induced myeloid leukemia cell differentiation protein Mcl-1 (Homo sapiens, UniProt Q07820); type: functional
CHO = test: cytotoxicity in TLR9-MyD88 CHO cells, dose response, cytotoxicity control for TLR9-MyD88 binding inhibitor project, cell-based, luminescence (AID 588339); type: functional, hamster; conditions: Cricetulus griseus;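 further: CHO cells stably coexpressing TLR9 and MyD88 fusions from primary screen; compound exposure lasted 48 hours before viability readout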
Beta Lactamase = Beta Lactamase (Pseudomonas aeruginosa, UniProt Q932Y6); test: beta-lactamase reporter inhibitor potency, dose response, artefact control for TLR9-MyD88 binding inhibitor project, BLA reporter cells, FRET fluorescence (AID 588341); type: cell-based;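 further: cell based assay in CHO-K1 cells stably expressing beta-lactamase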
[2] = target: Latent membrane protein 1 (Human herpesvirus 4 (strain B95-8), UniProt P03230); test: TES1-eGFP NF-kB reporter inhibition versus Tet-On dsRED, dose response, selectivity assay for LMP1 NF-kB inhibitor project, imaging, HEK293T, dual-color eGFP/dsRED, cherry-picks (AID 588398); type: functional, cell-based
[3] = Luminescence Cell-Based Dose Response HTS to Identify Inhibitors of 5'UTR Stem-Loop Driven Prion Protein mRNA Translation in H4 Neuroglioblastoma Cells. [Related pubchem assays: 1827 (Project Summary), 1813 (Primary HTS)]; type: functional
[4] = Luminescence Cell-Based Dose Confirmation HTS to Identify Inhibitors of Platelet Dense Granule Release. [Related pubchem assays: 1663 (Primary HTS), 1678 (Summary of Project)]; type: functional
[5] = target: Luciferin 4-monooxygenase (Photinus pyralis, UniProt P08659); test: firefly luciferase enzyme inhibitors, dose response, biochemical, luminescence (AID 1891)
HEK293 = test: inhibitors of LMP1-driven NF-kB reporter, dose response, cell-based, HEK293, luciferase, cherry-pick (AID 588343); type: functional; conditions: Homo sapiens
[6] = inhibitors of SNCA 5'UTR-driven reporter translation, confirmation, H4 neuroglioma cells, luminescence (AID 1988); type: functional, cell-based
[7] = target: Voltage-gated inwardly rectifying potassium channel KCNH2 (Homo sapiens, UniProt Q12809); conditions: Potency;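 further: confirmatory quantitative high-throughput screen measuring inhibition of hERG channel activity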
HeLa = test: HeLa cell cytotoxicity, dose response, cytotoxicity control for MITF activator project, CellTiter-Glo luminescence, cherry-pick samples (AID 540259); type: functional, cell-based; conditions: Homo sapiens
[8] = target: T1, Aryl hydrocarbon receptor (Homo sapiens, UniProt P35869); conditions: Potency;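 further: confirmatory quantitative high-throughput screen measuring activation of the AhR signaling pathway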
T1 sequence (P35869 whole entry): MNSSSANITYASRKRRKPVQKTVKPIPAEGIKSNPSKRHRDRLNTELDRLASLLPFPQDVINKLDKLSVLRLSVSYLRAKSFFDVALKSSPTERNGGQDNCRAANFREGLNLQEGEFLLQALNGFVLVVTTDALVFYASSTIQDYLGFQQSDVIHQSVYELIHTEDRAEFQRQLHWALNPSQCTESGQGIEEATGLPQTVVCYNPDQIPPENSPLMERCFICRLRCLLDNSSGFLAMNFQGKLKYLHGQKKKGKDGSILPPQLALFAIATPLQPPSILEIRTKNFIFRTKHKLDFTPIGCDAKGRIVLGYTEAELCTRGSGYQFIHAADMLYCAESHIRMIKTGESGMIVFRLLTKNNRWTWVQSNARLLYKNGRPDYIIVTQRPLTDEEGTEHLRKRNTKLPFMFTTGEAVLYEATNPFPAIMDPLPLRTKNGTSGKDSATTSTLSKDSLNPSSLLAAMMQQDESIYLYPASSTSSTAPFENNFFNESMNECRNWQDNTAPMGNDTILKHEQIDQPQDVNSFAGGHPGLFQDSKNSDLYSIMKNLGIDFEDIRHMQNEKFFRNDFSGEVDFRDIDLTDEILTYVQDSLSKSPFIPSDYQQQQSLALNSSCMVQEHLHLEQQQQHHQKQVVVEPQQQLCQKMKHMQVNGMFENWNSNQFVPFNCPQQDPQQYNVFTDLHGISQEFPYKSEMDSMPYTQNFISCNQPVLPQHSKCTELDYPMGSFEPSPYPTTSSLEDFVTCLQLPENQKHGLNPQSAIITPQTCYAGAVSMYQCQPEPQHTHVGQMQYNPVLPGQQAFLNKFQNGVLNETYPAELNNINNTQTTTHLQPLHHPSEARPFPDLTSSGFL

[9] = target: T2, Type-1 angiotensin II receptor (Homo sapiens, UniProt P30556); test: AT1 receptor antagonists, dose response, selectivity assay for APJ receptor antagonist project, cell-based, uHTS hits (AID 463214); type: functional;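 further: antagonist potency against angiotensin II stimulated AT1 response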
T2 sequence (P30556 whole entry): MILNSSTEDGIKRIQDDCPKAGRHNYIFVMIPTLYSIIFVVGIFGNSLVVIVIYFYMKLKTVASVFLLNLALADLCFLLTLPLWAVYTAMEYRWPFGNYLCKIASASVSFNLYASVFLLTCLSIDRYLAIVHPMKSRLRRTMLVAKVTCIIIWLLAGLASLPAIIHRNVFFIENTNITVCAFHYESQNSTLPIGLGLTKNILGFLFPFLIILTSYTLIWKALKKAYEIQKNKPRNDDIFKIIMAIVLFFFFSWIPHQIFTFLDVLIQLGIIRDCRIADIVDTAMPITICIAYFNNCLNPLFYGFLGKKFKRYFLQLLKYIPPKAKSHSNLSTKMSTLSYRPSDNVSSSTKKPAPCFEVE

Beta-galactosidase = Beta-galactosidase (Escherichia coli, UniProt Q8VNN2); test: PubChem AID 485352; type: functional
[10] = microbe, parasite or virus in culture; type: functional; conditions: Mycobacterium tuberculosis
[11] = inhibitors of firefly luciferase expression or activity, dose response, H4 neuroglioma cells, luminescence (AID 1990); type: functional, cell-based
Streptococcus = test: Group A Streptococcus viability loss, dose response, counter-screen for streptokinase expression inhibitor project, luminescence, BacTiterGlo (AID 1915); type: functional, organism-based;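 further: potency for reduction of bacterial viability or growth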
[12] = tested on: Streptococcus sp. 'group A'; test: growth inhibition of control SK(-) GAS strain, dose response, counter-screen for streptokinase expression inhibitor project, luminescence, kanamycin, BacTiterGlo, confirmation (AID 1900); type: functional, organism-based
INS1 = test: beta cell apoptosis inhibitors, cytokine rescue, dose response, luminescence, retest (AID 449756); type: functional, cell-based; conditions: Rattus norvegicus;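 further: cell death triggered by IL-1 beta plus TNF-alpha plus IFN-gamma mixture; protective hits raise ATP signal compared with cytokine alone wells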
[13] = target: Heat shock protein HSP 90-alpha (Homo sapiens, UniProt P07900); type: functional, organism-based

Sequence of Voltage-gated inwardly rectifying potassium channel KCNH2 (Q12809 whole entry): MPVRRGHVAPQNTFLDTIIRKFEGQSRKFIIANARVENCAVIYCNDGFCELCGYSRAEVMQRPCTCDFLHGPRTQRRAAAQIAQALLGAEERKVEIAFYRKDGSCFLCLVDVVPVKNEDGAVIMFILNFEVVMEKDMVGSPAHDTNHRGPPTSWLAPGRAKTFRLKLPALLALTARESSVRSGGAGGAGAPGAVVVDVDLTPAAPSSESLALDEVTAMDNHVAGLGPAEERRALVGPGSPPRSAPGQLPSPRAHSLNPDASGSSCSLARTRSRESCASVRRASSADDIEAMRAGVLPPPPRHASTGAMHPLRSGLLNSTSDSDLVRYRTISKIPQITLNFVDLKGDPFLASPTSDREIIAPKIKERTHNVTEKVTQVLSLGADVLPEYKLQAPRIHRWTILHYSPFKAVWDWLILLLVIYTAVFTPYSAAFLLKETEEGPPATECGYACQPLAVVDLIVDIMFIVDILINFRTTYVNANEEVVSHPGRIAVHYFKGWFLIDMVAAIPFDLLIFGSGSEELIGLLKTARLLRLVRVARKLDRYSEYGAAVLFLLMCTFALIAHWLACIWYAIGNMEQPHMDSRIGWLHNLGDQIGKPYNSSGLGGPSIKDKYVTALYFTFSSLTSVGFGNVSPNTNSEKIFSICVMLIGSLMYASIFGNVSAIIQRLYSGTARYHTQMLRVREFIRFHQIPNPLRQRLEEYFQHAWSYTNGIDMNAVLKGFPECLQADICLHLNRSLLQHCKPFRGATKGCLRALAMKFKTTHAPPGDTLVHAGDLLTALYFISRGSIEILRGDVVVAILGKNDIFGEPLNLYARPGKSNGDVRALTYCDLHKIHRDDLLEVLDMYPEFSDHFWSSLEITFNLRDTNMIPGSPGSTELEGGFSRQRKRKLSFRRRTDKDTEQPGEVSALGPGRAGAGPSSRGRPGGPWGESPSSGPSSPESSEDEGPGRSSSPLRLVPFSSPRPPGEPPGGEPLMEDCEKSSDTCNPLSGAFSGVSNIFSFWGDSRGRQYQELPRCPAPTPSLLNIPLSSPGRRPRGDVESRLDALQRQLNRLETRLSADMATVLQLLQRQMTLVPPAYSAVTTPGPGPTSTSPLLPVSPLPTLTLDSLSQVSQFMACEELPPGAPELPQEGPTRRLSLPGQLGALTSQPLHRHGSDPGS
Sequence of Latent membrane protein 1 (P03230 whole entry): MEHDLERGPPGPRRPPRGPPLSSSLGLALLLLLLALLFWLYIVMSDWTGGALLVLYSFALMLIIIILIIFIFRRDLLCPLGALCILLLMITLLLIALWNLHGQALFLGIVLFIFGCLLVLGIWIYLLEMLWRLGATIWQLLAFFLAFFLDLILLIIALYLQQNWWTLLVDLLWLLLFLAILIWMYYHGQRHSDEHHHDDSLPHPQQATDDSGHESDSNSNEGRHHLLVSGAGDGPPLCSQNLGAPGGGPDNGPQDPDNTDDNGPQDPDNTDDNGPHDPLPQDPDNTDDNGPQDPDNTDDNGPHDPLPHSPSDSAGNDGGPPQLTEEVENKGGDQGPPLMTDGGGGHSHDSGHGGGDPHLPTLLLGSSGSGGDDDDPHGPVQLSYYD
Sequence of Phospholipase D2 (O14939 whole entry): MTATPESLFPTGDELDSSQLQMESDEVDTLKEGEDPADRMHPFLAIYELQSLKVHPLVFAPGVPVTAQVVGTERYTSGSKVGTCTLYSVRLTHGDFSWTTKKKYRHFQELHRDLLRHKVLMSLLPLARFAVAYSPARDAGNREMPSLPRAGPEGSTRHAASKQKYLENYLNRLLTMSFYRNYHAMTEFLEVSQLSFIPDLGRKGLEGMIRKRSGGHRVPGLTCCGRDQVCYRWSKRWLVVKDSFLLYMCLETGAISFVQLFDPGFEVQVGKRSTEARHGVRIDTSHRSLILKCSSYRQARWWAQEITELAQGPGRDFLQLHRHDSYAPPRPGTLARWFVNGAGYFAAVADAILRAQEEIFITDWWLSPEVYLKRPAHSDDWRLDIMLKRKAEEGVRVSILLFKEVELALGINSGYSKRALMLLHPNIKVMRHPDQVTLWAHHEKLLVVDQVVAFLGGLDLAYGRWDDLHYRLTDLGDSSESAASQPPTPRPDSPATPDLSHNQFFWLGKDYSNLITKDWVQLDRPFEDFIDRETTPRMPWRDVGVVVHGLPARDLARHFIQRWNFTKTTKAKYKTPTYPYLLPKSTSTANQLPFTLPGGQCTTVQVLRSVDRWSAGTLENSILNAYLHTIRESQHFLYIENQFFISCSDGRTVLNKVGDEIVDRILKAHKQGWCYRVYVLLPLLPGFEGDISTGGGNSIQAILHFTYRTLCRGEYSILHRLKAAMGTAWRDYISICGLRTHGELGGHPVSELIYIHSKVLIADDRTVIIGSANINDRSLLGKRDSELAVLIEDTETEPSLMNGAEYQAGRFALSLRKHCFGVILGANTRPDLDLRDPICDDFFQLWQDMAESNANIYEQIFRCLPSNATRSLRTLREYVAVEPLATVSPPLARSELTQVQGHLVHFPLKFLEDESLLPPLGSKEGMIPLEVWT
Sequence of Luciferin 4-monooxygenase (P08659 whole entry): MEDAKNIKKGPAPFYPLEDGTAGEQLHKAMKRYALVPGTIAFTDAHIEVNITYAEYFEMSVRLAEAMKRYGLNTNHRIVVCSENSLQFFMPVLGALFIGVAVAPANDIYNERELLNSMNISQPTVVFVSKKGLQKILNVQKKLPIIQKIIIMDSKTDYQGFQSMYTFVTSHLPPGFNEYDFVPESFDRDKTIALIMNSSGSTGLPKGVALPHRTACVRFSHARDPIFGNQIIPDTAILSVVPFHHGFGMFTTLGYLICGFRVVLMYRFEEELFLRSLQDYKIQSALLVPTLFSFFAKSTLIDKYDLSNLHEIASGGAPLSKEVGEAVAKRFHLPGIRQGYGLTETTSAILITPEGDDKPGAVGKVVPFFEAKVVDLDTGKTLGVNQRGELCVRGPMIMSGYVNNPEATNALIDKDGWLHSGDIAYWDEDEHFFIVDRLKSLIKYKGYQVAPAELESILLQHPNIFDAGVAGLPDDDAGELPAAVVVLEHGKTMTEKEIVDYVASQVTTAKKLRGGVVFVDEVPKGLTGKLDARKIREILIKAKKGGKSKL
Sequence of Phospholipase D1 (Q13393 whole entry): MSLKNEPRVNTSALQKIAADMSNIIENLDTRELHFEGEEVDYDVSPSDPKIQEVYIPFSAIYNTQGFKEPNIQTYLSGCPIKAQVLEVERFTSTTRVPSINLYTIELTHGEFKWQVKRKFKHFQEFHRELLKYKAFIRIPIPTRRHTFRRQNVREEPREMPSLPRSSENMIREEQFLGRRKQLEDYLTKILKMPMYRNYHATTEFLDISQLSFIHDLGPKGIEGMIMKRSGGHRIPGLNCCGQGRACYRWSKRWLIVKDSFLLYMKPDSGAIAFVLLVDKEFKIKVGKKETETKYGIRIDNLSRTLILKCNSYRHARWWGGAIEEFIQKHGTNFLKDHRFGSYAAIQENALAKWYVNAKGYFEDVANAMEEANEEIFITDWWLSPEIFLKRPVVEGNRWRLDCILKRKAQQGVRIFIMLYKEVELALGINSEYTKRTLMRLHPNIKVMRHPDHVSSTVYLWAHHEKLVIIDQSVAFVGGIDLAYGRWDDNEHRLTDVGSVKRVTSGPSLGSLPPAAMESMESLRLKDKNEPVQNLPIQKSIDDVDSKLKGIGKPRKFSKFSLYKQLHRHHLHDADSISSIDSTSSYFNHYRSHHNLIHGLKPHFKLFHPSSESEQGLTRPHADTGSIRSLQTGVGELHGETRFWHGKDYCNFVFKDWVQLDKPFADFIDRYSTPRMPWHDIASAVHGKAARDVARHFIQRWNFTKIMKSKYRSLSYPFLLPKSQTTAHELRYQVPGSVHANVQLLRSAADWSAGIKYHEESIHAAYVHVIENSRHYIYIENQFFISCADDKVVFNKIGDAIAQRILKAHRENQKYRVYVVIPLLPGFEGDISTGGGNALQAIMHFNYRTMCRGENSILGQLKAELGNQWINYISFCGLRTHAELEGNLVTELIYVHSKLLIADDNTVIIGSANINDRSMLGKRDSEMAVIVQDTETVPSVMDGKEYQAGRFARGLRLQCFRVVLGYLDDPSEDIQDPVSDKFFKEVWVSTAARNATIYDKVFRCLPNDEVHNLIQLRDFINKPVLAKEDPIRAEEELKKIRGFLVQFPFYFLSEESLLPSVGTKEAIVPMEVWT
Sequence of Beta Lactamase (Q932Y6 whole entry): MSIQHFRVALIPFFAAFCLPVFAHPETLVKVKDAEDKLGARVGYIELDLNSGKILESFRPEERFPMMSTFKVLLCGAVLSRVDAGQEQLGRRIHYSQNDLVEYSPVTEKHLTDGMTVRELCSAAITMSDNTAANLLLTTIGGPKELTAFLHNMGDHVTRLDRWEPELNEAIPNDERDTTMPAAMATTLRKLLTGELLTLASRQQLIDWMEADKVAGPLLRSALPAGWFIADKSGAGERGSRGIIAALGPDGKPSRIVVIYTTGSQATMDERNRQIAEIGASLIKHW
Sequence of Induced myeloid leukemia cell differentiation protein Mcl-1 (Q07820 whole entry, the tested form may be a part): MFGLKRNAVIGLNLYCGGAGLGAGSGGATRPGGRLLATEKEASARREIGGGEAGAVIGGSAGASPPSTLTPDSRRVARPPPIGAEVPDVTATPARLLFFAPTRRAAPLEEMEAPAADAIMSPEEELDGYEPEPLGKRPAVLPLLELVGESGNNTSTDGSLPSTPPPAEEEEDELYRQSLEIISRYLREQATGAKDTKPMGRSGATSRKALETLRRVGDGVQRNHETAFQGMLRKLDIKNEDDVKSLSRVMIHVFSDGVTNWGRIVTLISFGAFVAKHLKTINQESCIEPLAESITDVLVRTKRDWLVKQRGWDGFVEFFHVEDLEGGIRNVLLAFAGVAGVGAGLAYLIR

In the case of Cc1ccc(C(=O)N[C@@H](C)CN2CCC(n3c(=O)[nH]c4cc(Cl)ccc43)CC2)cc1, the IC50 (Phospholipase D2) is reported as 1.05 µM (active) and the IC50 (Phospholipase D1) is reported as 0.011 µM (active).

In the case of COc1ccc(C(=O)c2sc3nc(-c4ccc(OC)cc4)ccc3c2N)cc1, the IC50 [1] is reported as 2.99 µM (not active), the IC50 (CHO) is reported as 36.8 µM (inactive) and the IC50 (Beta Lactamase) is reported as 4.44 µM (active).

In the case of COc1ccc(C(=O)Nc2ccc3[nH]ccc3c2)cc1, the AC50 [2] is reported as 27.2 µM (active), the EC50 [3] is reported as 13.6 µM (active) and the EC50 [4] is reported as 5.61 µM (active). For the same molecule, the EC50 [5] was 3.28 µM (active), the AC50 (HEK293) was 2.59 µM (active) and the EC50 [6] was 7.91 µM (active).

In the case of c1ccc(Nc2ccc(Nc3ccccc3)cc2)cc1, the AC50 [7] is reported as 20 µM (inconclusive), the AC50 (HeLa) is reported as 43.6 µM (active) and the AC50 [8] is reported as 50.1 µM (inconclusive).

With CNc1ccc2oc(C[C@H]3O[C@@]4(CC[C@H]3C)O[C@H]([C@H](C)C(=O)c3ccc[nH]3)[C@H](C)C[C@H]4C)nc2c1C(=O)O [CALCIMYCIN] the IC50 [9] was > 40 µM (not active), the EC50 (Beta-galactosidase) was > 40 µM (inactive) and the CC50 [10] was 0.319 µM (active). The EC50 [3] was 0.267 µM (active), the EC50 [11] was 0.293 µM (active) and the EC50 (Streptococcus) was 0.128 µM (active). The EC50 [12] was < 0.06 µM (active), the AC50 (INS1) was 2.08 µM (active) and the AC50 [13] was 1.07 µM (active). The EC50 [6] was 0.172 µM (active).

From ChEMBL document CHEMBL1201862, “PubChem BioAssay data set” (2004)
